The values below are quoted from earlier work in paper PMC8359378 (British Journal of Clinical Pharmacology, 2021).

The conditions of data set [1]: intravenous infusion; cited from earlier work.
For the next data set, the system named is FXI and FXIa. The note with it: subcutaneous administration; cited from earlier work.
In another data set the test system is factor XIa activity. The note with it: cited from earlier work.

Regarding `CN1CCN(c2cccc3c2CCN(C(=O)/C=C/c2c(-n4cnnn4)ccc(Cl)c2F)[C@@H]3C(=O)Nc2ccc(C(=O)O)cc2)C(=O)C1` [BMS‐962212], in data set [1], the “patients in the active treated groups reporting AEs” value is listed as 17.6% and the “patients reporting infusion site pain or irritation” value is given as 5.9%.

B1: MAA868: fully human antibody which binds both FXI and FXIa (antibody, chains of the INN, looked up, V domains shown)
VH: QVQLLESGGGLVQPGGSLRLSCAASGFTFSTAAMSWVRQAPGKGLEWVSGISGSGSSTYYADSVKGRFTISRDNSKNTLYLQMNSLRAEDTAVYYCARELSYLYSGYYFDYWGQGTLVTVSS
VL: QSVLTQPPSASGTPGQRVTISCSGSSSNIGSNDVSWYQQLPGTAPKLLIYKNYNRPSGVPDRFSGSKSGTSASLAISGLQSEDEADYYCSAWDQRQFDVVFGGGTKLTVL
For the molecule B1, the “effect on aPTT and FXI” value in the data set on FXI and FXIa is “robust and sustained prolongation of aPTT and FXI suppression”.

B2: Osocimab: fully human IgG1 monoclonal antibody targeting coagulation factor XIa (antibody, chains of the INN, looked up, V domains shown)
VH: EVQLLESGGGLVQPGGSLRLSCAASGFTFSQYGMDWVRQAPGKGLEWVSGIGPSGGSTVYADSVKGRFTISRDNSKNTLYLQMNSLRAEDTAVYYCTRGGPYYYYGMDVWGQGTTVTVSS
VL: DIQMTQSPSSLSASVGDRVTITCQASQDISNYLNWYQQKPGKAPKLLIYDASNLETGVPSRFSGSGSGTDFTFTISSLQPEDIATYYCQQADSFPVTFGGGTKVEIK
For the molecule B2, the “effect on apparent factor XIa activity and aPTT” value in the data set on factor XIa activity is “reduced apparent factor XIa activity and prolonged aPTT in a dose‐dependent manner”.
